From patent publication US9057727B2, “Screening methods using G-protein coupled receptors and related compositions” (The General Hospital Corporation, priority 2007, dated 2015)
“Also recorded” adds a separate entry of the source. One block for each compound: values may come before it. Square brackets hold non-standard residues; d marks the D form. Peptide text beside a SMILES is read from it. Nle = CCCC[C@H](N)C(=O)O

Experiments:
[1] = molecular target: T1, human PTHR, G protein-uncoupled conformation (R^0) (Homo sapiens, UniProt Q03431); test: Competition binding to R0 conformation of hPTHR (COS-7 membranes, GTPγS, 125I-PTH(1-34) tracer); details: Table 5, fold weaker affinity for R0 than RG
T1 construct: expressed in transfected cells; host or cells: COS-7, transient (Fugene-6)
T1 sequence (Q03431 27-593): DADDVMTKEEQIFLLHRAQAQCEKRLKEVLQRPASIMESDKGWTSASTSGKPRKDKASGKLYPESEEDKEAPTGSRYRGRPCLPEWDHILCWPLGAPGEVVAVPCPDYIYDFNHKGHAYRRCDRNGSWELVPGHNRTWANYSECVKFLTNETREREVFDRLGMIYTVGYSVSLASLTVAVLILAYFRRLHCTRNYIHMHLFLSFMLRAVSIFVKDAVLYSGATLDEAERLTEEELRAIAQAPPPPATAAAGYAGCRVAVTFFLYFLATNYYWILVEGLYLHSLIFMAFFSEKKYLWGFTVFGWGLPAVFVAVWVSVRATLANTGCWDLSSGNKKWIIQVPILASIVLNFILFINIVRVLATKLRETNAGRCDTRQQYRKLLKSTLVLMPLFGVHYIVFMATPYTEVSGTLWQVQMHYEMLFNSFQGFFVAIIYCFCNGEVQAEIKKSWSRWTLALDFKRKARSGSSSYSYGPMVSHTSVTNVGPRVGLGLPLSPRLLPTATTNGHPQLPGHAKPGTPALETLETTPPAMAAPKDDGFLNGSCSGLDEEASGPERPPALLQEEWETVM
Summary of the method: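 Membranes from hPTHR-transfected COS-7 cells (20-100 μg/mL protein) incubated 90 min with radioligand (~150,000 cpm/ml) and unlabeled ligands, then filtered. Specific binding expressed as % of binding without competitor.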

[2] = tested on: NaPi-IIc; test: NaPi-IIc immunostaining in renal PT cells of injected mice; format: in vivo; details: interval 4 to 6 h
Excerpt: (§1) To impair PLC signaling, we replaced alanine at position 1 of M-PTH(1-28) with tryptophan, in accordance with findings of Bisello and colleagues (J Biol Chem 277:38524-30, 2002) showing that such bulky substitutions at this position selectively impair PLC signaling.

[3] = molecular target: T2, hPTHR (Homo sapiens, UniProt Q03431); test: Delayed cAMP response after ligand wash-out in HKRK-B64 cells; format: cell-based; design: expressed in transfected cells; details: HKRK-B64, 60 minutes after wash-out; read-out: cAMP response after wash-out, % of maximum response
T2 sequence (Q03431 27-593): T1 sequence (Q03431 27-593)

[4] = molecular target: T2, hPTHR; test: Delayed cAMP response after ligand wash-out in HKRK-B7 cells; format: cell-based; design: expressed in transfected cells
[5] = Plasma phosphate in mice (20 nmol/kg); format: in vivo
Excerpt: as §1

[6] = Bone turnover markers (PINP, osteocalcin, CTX) in mice, daily treatment; format: in vivo; details: 5 nmol/kg i.v. daily, days 6 and 13
Experimental: FIGS. 30A-30F are graphs showing the effects of PTH analogs on plasma bone markers in mice. Mice (C57BL/6, males, 3 months) were intravenously injected daily with either vehicle, rPTH(1-34) (SEQ ID NO:130), M-PTH(1-34) (SEQ ID NO:12), or (EALK)-PTHrP(1-30) (SEQ ID NO:90) (5 nmol/kg; n=7 group) for 14 days. Markers of bone turnover (PINP, CTX and osteocalcin) were assessed by ELISA in blood at day 6 (FIGS. 30A, 30C, and 30E, respectively) and 13 (FIGS. 30B, 30D, and 30F, respectively).
A second set of experiments was performed in which mice received 5 nmol/kg intravenous daily treatment with rPTH(1-34), M-PTH(1-34), or EALK-PTHrP(1-30) for 14 days. Blood samples were taken at days 6 and 13, and markers of bone turnover (PINP, osteocalcin and CTX) were assessed by ELISA.

[7] = Bone structural parameters after two-week daily treatment in mice (Piximus, microCT); format: in vivo
Experimental: FIG. 31 is a set of images showing the effects of two-week daily treatment of R^0 and RG ligands on trabecular and cortical bone structure in mice. Mice (C57BL/6, males, 3 months) were treated (i.v.) with either vehicle, rPTH(1-34) (SEQ ID NO:130), M-PTH(1-34) (SEQ ID NO:12), or E^18,A^22,L^25,K^26 (EALK)PTHrP(1-30) (SEQ ID NO:90) (5 nmol/kg; n=7 group), daily for 14 days, and femurs were analyzed by μCT.
As described above, mice were treated intravenously) with either vehicle, rPTH(1-34), M-PTH(1-34), or EALK-PTHrP(1-30) daily for 14 days.

[8] = Serum and urinary calcium and phosphate in TPTX rats; format: in vivo; details: single i.v. 1.25 nmol/kg
Experimental: Five-week-old male Crl:CD(SD) rats were obtained from Charles River Laboratories Japan, Inc. (Kanagawa, Japan) and acclimated for 1 week under standard laboratory conditions at 20-26° C. and 35-75% humidity. The rats received free access to tap water and standard rodent chow (CE-2) containing 1.1% calcium, 1.0% phosphate and 250 IU/100 g of vitamin D3 (Clea Japan, Inc., Shizuoka, Japan).
Thyroparathyroidectomy (TPTX) was performed on six-week-old rats. TPTX rats were selected for use based on serum ionized calcium (iCa) levels (<1.0 mM) in samples taken from tail vein bleeding at 24 hours or […] after the operation using the electrode method. The TPTX rats were divided into six groups of five animals based on iCa levels at 48 hours after the operation. TPTX-vehicle group intravenously received the vehicle alone (10 mM acetic acid solution) at a dose of 1 ml/kg body weight administered to the tail vein.
Blood was obtained from the tail vein for detecting iCa at 1, 2, 4, 6, and 24 hours after each injection. Ionized calcium levels were determined by the electrode method using an autoanalyzer (M-634, Chiba Corning Diagnostics Co. Ltd., Tokyo, Japan).
We also studied the effects of the M-PTH(1-14)/PTHrP(15-36) hybrid peptide (SP-PTH) on serum and urinary calcium and phosphate.

[9] = tested on: opossum kidney (OK) cell line; test: Phosphate uptake inhibition in opossum kidney cells; format: cell-based; details: 10 minute exposure, 1×10^−7 M
[10] = tested on: NaPi-IIa; test: NaPi-IIa staining in renal PT cells of injected mice; details: mouse, in vivo
Excerpt: To help elucidate further the signaling mechanisms by which PTH ligands regulate renal phosphate transport, we developed a derivative of M-PTH(1-28) that is defective for PLC/PKC signaling, yet retains potent cAMP/PKA signaling activity. Such a peptide allows for study of the relative roles of the PKA and PKC signaling pathways in modulating the function and surface expression of the Pi transporters NaPi-IIa and NaPi-IIc in proximal tubule (PT) cells. The analog M-PTH(1-28) (M=Ala^1,Aib^3,Gln^10, Har^11,Trp^14,Arg^19), a potent agonist for cAMP and IP3 signaling pathways, induces, when injected into mice, prolonged hypophosphatemic and hypercalcemic effects.
as §1

[11] = molecular target: T2, hPTHR; test: cAMP dose-response in HKRK-B64 cells; format: cell-based; design: expressed in transfected cells
[12] = molecular target: T2, hPTHR; test: Inositol phosphate production in COS-7/hPTHR cells; format: cell-based; design: expressed in transfected cells; host or cells: COS-7, transient (Fugene-6); details: basal 330 ± 8 cpm/well not subtracted
[13] = Piximus, mice, 5 nmol/kg i.v. daily 14 days

R0:RG [1]: five | Emax [3]: 47%
SMILES: CC[C@H](C)[C@H](NC(=O)[C@H](CCC(=O)O)NC(=O)[C@H](CO)NC(=O)[C@@H](NC(=O)[C@H](C)N)C(C)C)C(=O)N[C@@H](CCC(N)=O)C(=O)N[C@@H](CC(C)C)C(=O)N[C@@H](CCSC)C(=O)N[C@@H](Cc1c[nH]cn1)C(=O)N[C@@H](CC(N)=O)C(=O)N[C@@H](CC(C)C)C(=O)NCC(=O)N[C@@H](CCCCN)C(=O)N[C@@H](Cc1c[nH]cn1)C(=O)N[C@@H](CC(C)C)C(=O)N[C@@H](C)C(=O)N[C@@H](CO)C(=O)N[C@H](C(=O)N[C@@H](CCC(=O)O)C(=O)N[C@@H](CCCNC(=N)N)C(=O)N[C@@H](CCSC)C(=O)N[C@@H](CCC(N)=O)C(=O)N[C@@H](Cc1c[nH]c2ccccc12)C(=O)N[C@@H](CC(C)C)C(=O)N[C@@H](CCCNC(=N)N)C(=O)N[C@@H](CCCCN)C(=O)N[C@@H](CCCCN)C(=O)N[C@@H](CC(C)C)C(=O)N[C@@H](CCC(N)=O)C(=O)N[C@@H](CC(=O)O)C(=O)N[C@H](C(=O)N[C@@H](Cc1c[nH]cn1)C(=O)N[C@@H](CC(N)=O)C(=O)N[C@@H](Cc1ccccc1)C(N)=O)C(C)C)C(C)C [PTH(1-34), reference compound]
NaPi-IIc immunostaining, in words [2]: unchanged | time course of cAMP responses after wash-out compared with other ligands, in words [4]: not different from those induced by PTHrP(1-36); also recorded: nearly identical to those produced by Ile^5-PTHrP(1-36) | time of maximal suppression of plasma phosphate [5]: 2 h | time of recovery of plasma phosphate to vehicle control levels [5]: 4 h | effect on bone turnover markers, in words [6]: only minor effects on bone markers | Lumbar Spine BMD [7, 13]: 0.0464 ± 0.0002 g/cm^2 | Total Femur BMD [7, 13]: 0.0615 ± 0.0003 g/cm^2 | Conn-Dens. ([7]; microCT distal femur): 116 ± 8 1/mm^3 | Cort Th. ([7]; microCT distal femur): 229 ± 11 μm | Tb · N ([7]; microCT distal femur): 4.02 ± 0.14 1/mm | Tb · Th ([7]; microCT distal femur): 57.5 ± 1.4 μm | TbSp ([7]; microCT distal femur): 246 ± 10 μm | TrabecularBV/TV ([7]; microCT distal femur): 17.4 ± 1.2% | BA ([7]; microCT mid femur): 0.839 ± 0.032 mm^2 | BA/TA ([7]; microCT mid femur): 38.7 ± 0.7% | Cort Th. ([7]; microCT mid femur): 172 ± 5 μm | MA ([7]; microCT mid femur): 1.33 ± 0.02 mm^2 | TA ([7]; microCT mid femur): 2.17 ± 0.05 mm^2 | serum calcium (sCa) and serum phosphorus (sPi), in words [8]: transiently increased serum calcium (sCa) and decreased serum phosphorus (sPi) levels at 1 hr, but not to the normal range | urinary calcium 0-6 hours, in words [8]: did not change | urinary phosphate 0-6 hours, in words [8]: did not change | duration of phosphate uptake inhibition, in words [9]: much shorter duration of phosphate uptake inhibition | apical and cytoplasmic NaPi-IIa staining, in words [10]: returned to vehicle control levels at 6 h

EC50 ([11]; 30 min, room temperature, IBMX): 2.7 nM | cAMP in HKRK-B64 cells Emax ([11]; basal 5.2 ± 0.9 pmole/well not subtracted): 59 ± 12 picomole/well | IP in COS-7/hPTHR cells Emax [12]: 2,231 ± 229 cpm/well | R0:RG [1]: 753 | R0:RG ([1]; listed as His^5-PTH(1-34)): 750 | Emax [3]: 34%
SMILES: CCCC[C@H](NC(=O)[C@H](CC(C)C)NC(=O)[C@H](CCC(N)=O)NC(=O)[C@H](Cc1c[nH]cn1)NC(=O)[C@H](CCC(=O)O)NC(=O)[C@H](CO)NC(=O)[C@@H](NC(=O)[C@H](C)N)C(C)C)C(=O)N[C@@H](Cc1c[nH]cn1)C(=O)N[C@@H](CC(N)=O)C(=O)N[C@@H](CC(C)C)C(=O)NCC(=O)N[C@@H](CCCCN)C(=O)N[C@@H](Cc1c[nH]cn1)C(=O)N[C@@H](CC(C)C)C(=O)N[C@@H](C)C(=O)N[C@@H](CO)C(=O)N[C@H](C(=O)N[C@@H](CCC(=O)O)C(=O)N[C@@H](CCCNC(=N)N)C(=O)N[C@@H](CCCC)C(=O)N[C@@H](CCC(N)=O)C(=O)N[C@@H](Cc1c[nH]c2ccccc12)C(=O)N[C@@H](CC(C)C)C(=O)N[C@@H](CCCNC(=N)N)C(=O)N[C@@H](CCCCN)C(=O)N[C@@H](CCCCN)C(=O)N[C@@H](CC(C)C)C(=O)N[C@@H](CCC(N)=O)C(=O)N[C@@H](CC(=O)O)C(=O)N[C@H](C(=O)N[C@@H](Cc1c[nH]cn1)C(=O)N[C@@H](CC(N)=O)C(=O)N[C@@H](Cc1ccc(O)cc1)C(N)=O)C(C)C)C(C)C [[His^5,Nle^8,21,Tyr^34]rPTH(1-34)NH2] (H-AVSEHQL[Nle]HNLGKHLASVER[Nle]QWLRKKLQDVHNY-NH2; N-terminus assumed)
